Molecules are shown by their SMILES. pIC50: −log10 of the molar value. Structures can show the parent of a compound that is named as a salt.

For this experiment, the target named is T1, purified recombinantly expressed human SSAO (Homo sapiens, UniProt Q16853).
T1 construct: made in house
T1 sequence (Q16853 29-763 limits assumed): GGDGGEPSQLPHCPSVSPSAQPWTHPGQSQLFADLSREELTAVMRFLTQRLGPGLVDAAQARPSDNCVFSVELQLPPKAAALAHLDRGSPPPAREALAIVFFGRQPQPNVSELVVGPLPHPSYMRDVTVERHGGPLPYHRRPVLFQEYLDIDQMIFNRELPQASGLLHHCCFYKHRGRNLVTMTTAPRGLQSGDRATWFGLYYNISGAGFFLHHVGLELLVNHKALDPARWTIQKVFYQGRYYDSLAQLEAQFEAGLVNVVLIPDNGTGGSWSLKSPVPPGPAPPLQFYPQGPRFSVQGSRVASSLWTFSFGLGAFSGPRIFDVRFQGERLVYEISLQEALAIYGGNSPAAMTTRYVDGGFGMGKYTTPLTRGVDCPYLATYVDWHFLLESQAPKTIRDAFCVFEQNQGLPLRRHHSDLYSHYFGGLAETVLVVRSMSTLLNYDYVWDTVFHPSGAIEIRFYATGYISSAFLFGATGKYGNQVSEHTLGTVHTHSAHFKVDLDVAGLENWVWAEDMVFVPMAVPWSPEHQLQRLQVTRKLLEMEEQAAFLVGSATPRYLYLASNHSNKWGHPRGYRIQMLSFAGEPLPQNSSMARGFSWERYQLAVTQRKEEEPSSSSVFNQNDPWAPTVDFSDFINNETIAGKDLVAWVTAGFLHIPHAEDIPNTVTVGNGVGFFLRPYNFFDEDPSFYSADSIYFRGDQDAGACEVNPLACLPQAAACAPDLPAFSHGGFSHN
Briefly: SSAO enzyme inhibition assay (benzylamine substrate; hydrogen peroxide/HRP-coupled or 14C aldehyde detection). The following applies: human recombinant SSAO, RT, benzylamine as substrate; read-out: SSAO inhibitory activity IC50. The experiment is classed as biochemical. How it is done: All primary assays were performed at RT. with purified recombinantly expressed human SSAO. Enzyme was prepared essentially as described in Ohman et al. (Protein Expression and Purification 46 (2006) 321 331). In addition, secondary- and selectivity assays were performed using SSAO prepared from various tissues or purified rat recombinant SSAO. The enzyme activity was assayed with benzylamine as substrate by measuring either benzaldehyde production, using ^14C-labeled substrate, or by utilizing the production of hydrogen peroxide in a horseradish peroxidase (HRP) coupled reaction. Briefly, test compounds were dissolved in dimethyl sulfoxide (DMSO) to a concentration of 10 mM. Dose-response measurements were assayed by either creating 1:10 serial dilutions in DMSO to produce a 7 point curve or by making 1:3 serial dilutions in DMSO to produce 11 point curves. The top concentrations were adjusted depending on the potency of the compounds and subsequent dilution in reaction buffer yielded a final DMSO concentration ≦2%.
In a horseradish peroxidase (HRP) coupled reaction, hydrogen peroxide oxidation of 10-acetyl-3,7-dihydroxyphenoxazine produced resorufin, which is a highly fluorescent compound (Zhout and Panchuk-Voloshina. Analytical Biochemistry 253 (1997) 169-174; Amplex® Red Hydrogen Peroxide/peroxidase Assay kit, Invitrogen A22188). Enzyme and compounds in 50 mM sodium phosphate, pH 7.4 were set to pre-incubate in flat-bottomed microtiter plates for approximately 15 minutes before initiating the reaction by addition of a mixture of HRP, benzylamine and Amplex reagent. Benzylamine concentration was fixed at a concentration corresponding to the Michaelis constant, determined using standard procedures. Fluorescence intensity was then measured at several time points during 1-2 hours, exciting at 544 nm and reading the emission at 590 nm. For the human SSAO assay final concentrations of the reagents in the assay wells were: SSAO enzyme 1 μg/ml, benzylamine 100 μM, Amplex reagent 20 μM, HRP 0.1 U/mL and varying concentrations of test compound. The inhibition was measured as % decrease of the signal compared to a control without inhibitor (only diluted DMSO). The background signal from a sample containing no SSAO enzyme was subtracted from all data points. Data was fitted to a four parameter logistic model and IC50 values were calculated using the GraphPad Prism 4 or XLfit 4 programs.
SSAO activity was assayed using 14C-labeled benzylamine and analysed by measuring radioactive benzaldehyde. In a white 96-well optiplate (Packard), 20 μL of diluted test compound was pre-incubated at RT. with 20 μL SSAO enzyme for approximately 15 minutes with continuous agitation. All dilutions were made with PBS. The reaction was initiated by adding 20 μL of the benzylamine substrate solution containing [7-14C] Benzylamine hydrochloride (CFA589, GE Healthcare). The plate was incubated for 1 hour as above after which the reaction was stopped by acidification (10 μL 1 M HCl). Then 90 μL Micro Scint-E solution (Perkin-Elmer) was added to each well and the plate was continuously mixed for 15 minutes. Phase separation occurred instantly and activity was read in a Topcount scintillation counter (Perkin-Elmer). In the final reaction well, the human recombinant SSAO concentration was 10 μg/ml. In order to optimize sensitivity, the substrate concentration was decreased as compared to the HRP coupled assay in order to get a higher fraction of radioactive product. In the human SSAO assay, benzylamine concentration was 40 μM (0.2 μCi/mL). Data was analysed as above.
As a reminder, the pIC50 is the negative decadic logarithm of the IC50, by convention in mol/L. Regarding `NCCN1CCC(c2cn(-c3ccc(Cl)cc3)c3cnccc23)CC1` [Example 1, 2,2,2-Trifluoroacetic acid; 2-{4-[1-(4-chlorophenyl)-1H-pyrrolo[2,3-c]pyridin-3-yl]piperidin-1-yl}ethan-1-amine], the pIC50 was greater than 7.00. The same measure for `NCCCOC(=O)N1CCC(c2cn(-c3ccc(Cl)cc3)c3cnccc23)CC1` [Example 2, 3-Aminopropyl 4-[1-(4-chlorophenyl)-1H-pyrrolo[2,3-c]pyridin-3-yl]piperidine-1-carboxylate]: greater than 7.00; for `CN(C)CCCC(=O)N1CCC(c2cn(-c3ccc(Cl)cc3)c3cnccc23)CC1` [Example 3, 1-{4-[1-(4-Chlorophenyl)-1H-pyrrolo[2,3-c]pyridin-3-yl]piperidin-1-yl}-4-(dimethylamino)butan-1-one; 2,2,2-trifluoroacetic acid]: greater than 7.00. In the case of `NCCCCC(=O)N1CCC(c2cn(-c3ccc(Cl)cc3)c3cnccc23)CC1` [Example 4, 5-Amino-1-{4-[1-(4-chlorophenyl)-1H-pyrrolo[2,3-c]pyridin-3-yl]piperidin-1-yl}pentan-1-one], the negative logarithm of the IC50 (pIC50) was greater than 7.00.

Take `NCCNC(=O)N1CCC(c2cn(-c3ccc(Cl)cc3)c3cnccc23)CC1` [Example 5, N-(2-Aminoethyl)-4-[1-(4-chlorophenyl)-1H-pyrrolo[2,3-c]pyridin-3-yl]piperidine-1-carboxamide]: the pIC50 is greater than 7.00. The same measure for `NCCCNC(=O)N1CCC(c2cn(-c3ccc(Cl)cc3)c3cnccc23)CC1` [Example 6, N-(3-Aminopropyl)-4-[1-(4-chlorophenyl)-1H-pyrrolo[2,3-c]pyridin-3-yl]piperidine-1-carboxamide]: greater than 7.00.

Take `CN(C)CCCNC(=O)N1CCC(c2cn(-c3ccc(Cl)cc3)c3cnccc23)CC1` [Example 7, 4-[1-(4-Chlorophenyl)-1H-pyrrolo[2,3-c]pyridin-3-yl]-N-[3-(dimethylamino)propyl]piperidine-1-carboxamide]: the negative logarithm of the IC50 (pIC50) is greater than 7.00. The same measure for `O=C(N1CCNCC1)N1CCC(c2cn(-c3ccc(Cl)cc3)c3cnccc23)CC1` [Example 8, 1-({4-[1-(4-Chlorophenyl)-1H-pyrrolo[2,3-c]pyridin-3-yl]piperidin-1-yl}carbonyl)piperazine]: greater than 7.00; for `O=C(N1CCOCC1)N1CCC(c2cn(-c3ccc(Cl)cc3)c3cnccc23)CC1` [Example 9, 4-({4-[1-(4-Chlorophenyl)-1H-pyrrolo[2,3-c]pyridin-3-yl]piperidin-1-yl}carbonyl)morpholine]: 6.30 to 7.00. As for `O=C(N1CCCNCC1)N1CCC(c2cn(-c3ccc(Cl)cc3)c3cnccc23)CC1` [Example 10, 1-({4-[1-(4-Chlorophenyl)-1H-pyrrolo[2,3-c]pyridin-3-yl]piperidin-1-yl}carbonyl)-1,4-diazepane], the figure is greater than 7.00.

On to `CCOC(=O)C1CCN(c2nn(-c3ccc(Cl)cc3)c3cnccc23)CC1` [Example 11, Ethyl 1-[1-(4-chlorophenyl)-1H-pyrazolo[3,4-c]pyridin-3-yl]piperidine-4-carboxylate], for which the pIC50 is 5.60 to 6.30.

For `CCOC(=O)C1CCN(c2nn(-c3ccc(C)cc3)c3cnccc23)CC1` [Example 12, Ethyl 1-[1-(4-methylphenyl)-1H-pyrazolo[3,4-c]pyridin-3-yl]piperidine-4-carboxylate], the pIC50 was 6.30 to 7.00. The same measure for `O=C(O)C1CCN(c2nn(-c3ccc(Cl)cc3)c3cnccc23)CC1` [Example 13, 1-[1-(4-Chlorophenyl)-1H-pyrazolo[3,4-c]pyridin-3-yl]piperidine-4-carboxylic acid hydrochloride]: 6.30 to 7.00; for `NCCNC(=O)C1CCN(c2nn(-c3ccc(Cl)cc3)c3cnccc23)CC1` [Example 14, N-(2-Aminoethyl)-1-[1-(4-chlorophenyl)-1H-pyrazolo[3,4-c]pyridin-3-yl]piperidine-4-carboxamide dihydrochloride]: 6.30 to 7.00; for `O=C(C1CCN(c2nn(-c3ccc(Cl)cc3)c3cnccc23)CC1)N1CCOCC1` [Example 15, 4-({1-[1-(4-Chlorophenyl)-1H-pyrazolo[3,4-c]pyridin-3-yl]piperidin-4-yl}carbonyl) morpholine]: 5.60 to 6.30. For `O=C(C1CCN(c2nn(-c3ccc(Cl)cc3)c3cnccc23)CC1)N1CCNCC1` [Example 16, 1-({1-[1-(4-Chlorophenyl)-1H-pyrazolo[3,4-c]pyridin-3-yl]piperidin-4-yl}carbonyl)piperazine dihydrochloride], the pIC50 is 6.30 to 7.00. Regarding `Cc1ccc(-n2nc(N3CCOCC3CO)c3ccncc32)cc1` (stereo not shown) [Example 17, {4-[1-(4-Methylphenyl)-1H-pyrazolo[3,4-c]pyridin-3-yl]morpholin-3-yl}methanol], the pIC50 was greater than 7.00. As for `Cc1ccc(-n2nc(N3CCOC(CO)C3)c3ccncc32)cc1` (stereo not shown) [Example 18, {4-[1-(4-Methylphenyl)-1H-pyrazolo[3,4-c]pyridin-3-yl]morpholin-2-yl}methanol], the figure is greater than 7.00. Regarding `OC[C@@H]1COCCN1c1nn(-c2ccc(Cl)cc2)c2cnccc12` [Example 19, [(3R)-4-[1-(4-Chlorophenyl)-1H-pyrazolo[3,4-c]pyridin-3-yl]morpholin-3-yl]methanol], the pIC50 was greater than 7.00. As to `COC(=O)C1COCCN1c1nn(-c2ccc(Cl)cc2)c2cnccc12` (stereo not shown) [Example 20, Methyl 4-[1-(4-chlorophenyl)-1H-pyrazolo[3,4-c]pyridin-3-yl]morpholine-3-carboxylate], the pIC50 was 6.30 to 7.00. Regarding `NCCNC(=O)C1COCCN1c1nn(-c2ccc(Cl)cc2)c2cnccc12` (stereo not shown) [Example 21, N-(2-Aminoethyl)-4-[1-(4-chlorophenyl)-1H-pyrazolo[3,4-c]pyridin-3-yl]morpholine-3-carboxamide], the pIC50 was greater than 7.00. As for `OCCC1COCCN1c1nn(-c2ccc(Cl)cc2)c2cnccc12` (stereo not shown) [Example 22, 2-{4-[1-(4-Chlorophenyl)-1H-pyrazolo[3,4-c]pyridin-3-yl]morpholin-3-yl}ethan-1-ol], the figure is greater than 7.00. On to `COC(=O)C1CCCCN1c1nn(-c2ccc(Cl)cc2)c2cnccc12` (stereo not shown) [Example 23, Methyl 1-[1-(4-chlorophenyl)-1H-pyrazolo[3,4-c]pyridin-3-yl]piperidine-2-carboxylate], for which the pIC50 was 5.60 to 6.30. As to `NCCNC(=O)C1CCCCN1c1nn(-c2ccc(Cl)cc2)c2cnccc12` (stereo not shown) [Example 24, N-(2-Aminoethyl)-1-[1-(4-chlorophenyl)-1H-pyrazolo[3,4-c]pyridin-3-yl]piperidine-2-carboxamide dihydrochloride], the negative logarithm of the IC50 (pIC50) is greater than 7.00. As for `O=C(C1CCCCN1c1nn(-c2ccc(Cl)cc2)c2cnccc12)N1CCNCC1` (stereo not shown) [Example 25, 1-({1-[1-(4-Chlorophenyl)-1H-pyrazolo[3,4-c]pyridin-3-yl]piperidin-2-yl}carbonyl) piperazine], the figure is greater than 7.00.

Source of the values: patent publication US9150574B2, “Enzyme inhibitor compounds” (Proximagen Limited, priority 2011, dated 2015).
